Results from patent US20030032879A1, “Microbubble formation using ultrasound” (priority 1997, published 2003).
One block for each compound: values may come before it.

Tests used:
[1] = Interfacial tension against dodecafluoropentane, Kruss Drop Volume Tensiometer; assay type: physicochemical; settings: Pluronic P-123 / F-127 mixtures, 4° C.
[2] = Acoustic backscatter (gray scale intensity) after injection into water beaker at 37° C.; settings: 0.2 mL neat liquid (1111 micromoles) into 1000 mL water at 37° C.
Procedure: The criticality that the low boiling liquid be present as a finely divided dispersion rather than as a neat liquid was determined by measuring the acoustic backscatter of the two states.
Two solutions were prepared to simulate the administration to an organism of either a colloidal dispersion of a low boiling liquid or the liquid neat. These were scanned at 5.0 MHz with a Hewlett Packard Model 77020 ultrasound scanner and the images obtained recorded on Sony ES VHS tape. The analog images from the tape were then converted to a digital form using the software package Global Lab Image Software (Data Translation, Marlboro, Mass.). The gray scale intensity within a 4900 pixel (70×70 pixel-sized) region-of-interest was then measured before and after the injection of the colloidal dispersion of Example 19 and the same quantity of neat dodecafluoropentane into a 1000 mL water beaker equilibrated at 37° C.
The measurements were performed on a gray scale of 2 to 254. […] The injection of 0.1 mL of this emulsion produced a change of intensity to 236 five seconds post-injection and 182 fifty-two seconds post-injection.
The same experiment was performed with a 0.2 mL injection of neat dodecafluoropentane. This corresponds to 1111 micromoles of dodecafluoropentane, over 300-times the quantity in the experiment above. […]

[3] = 760 mm Hg and 15° C., Gas Data Book; cited from earlier work
[4] = Calculated change in dispersion size from liquid and gas densities; assay type: physicochemical; settings: calculated from cubic root of volume
Procedure: One can also calculate the expected change in dispersion size if one knows the relative densities of the dispersed liquid as a gas and liquid. For example, the Gas Data Book, by W Braker and A Mossman, Matheson, contains such data. Examining octafluorocyclobutane, one finds that 1 L of the liquid yields 188 L of gas at a pressure of 760 mm Hg and 15° C. Since the volume of a sphere is related to the diameter of a sphere by the cubic root of the volume, the phase transition for an octafluorobutane emulsion particle will cause a 5.7-fold increase in diameter.

dogs = settings: cited from earlier work

HLB from graphed interfacial tension data [1]: about 14
Structure (SMILES): FC(F)(F)C(F)(F)C(F)(F)C(F)(F)C(F)(F)F [dodecafluoropentane]
image intensity (gray scale of 2 to 254) ([2]; fifty-two seconds post-injection): 5.0
image intensity (gray scale of 2 to 254) ([2]; five seconds post-injection): 7.7

Structure (SMILES): FC1(F)C(F)(F)C(F)(F)C1(F)F [octafluorocyclobutane]
gas volume from 1 L of the liquid [3]: 188 L
increase in diameter of emulsion particle on phase transition [4]: 5.7 fold

Structure (SMILES): CCOCC [ether]
toxicity (dogs; Injections of 20 mL): fatal
contrast effect on Doppler signal (dogs; intraarterial, detected five cm below injection site): greatest contrast effect
